Converted amounts (≈) assume the structure as drawn.
assay: Solubility of a compound in water; format: physicochemical; conditions: compound added until saturated
Method: Solubility of a compound was obtained by adding the compound into water of known volume (e.g. 1 mL) until saturated, measuring the amount of the compound added, and obtaining the solubility of the compound in water (mg/mL) (Table 9).

Structure (SMILES)	Solubility in Water
C[C@@H](O)[C@H](N)C(=O)Nc1ccccc1NC(=O)CCCCCC(=O)Nc1cccc(Br)c1.Cl [Thr-CC30•HCl]	1350 mg/mL
Cl.Cl.N=C(N)NCCC[C@H](N)C(=O)Nc1ccccc1NC(=O)CCCCCC(=O)Nc1cccc(Br)c1 [Arg-CC30•HCl]	100 mg/mL
Nc1ccccc1NC(=O)c1ccc(CNc2nccc(-c3cccnc3)n2)cc1 [MGCD0103, Mocetinostat, reference compound]	<1 mg/mL
Cl.Cl.NCCCC[C@H](N)C(=O)Nc1ccccc1NC(=O)c1ccc(CNC(=O)OCc2cccnc2)cc1 [Lys-MS-275•2HCl]	>100 mg/mL
Cl.NCC(=O)Nc1ccccc1NC(=O)c1ccc(CNc2nccc(-c3cccnc3)n2)cc1 [Gly-MGCD0103•HCl]	>100 mg/mL
Cl.NC(CO)C(=O)Nc1ccccc1NC(=O)c1ccc(CNc2nccc(-c3cccnc3)n2)cc1 (stereo not shown) [Ser-MGCD0103•HCl]	>100 mg/mL
Cl.Cl.NCCC[C@H](N)C(=O)Nc1ccccc1NC(=O)CCCCCC(=O)Nc1cccc(Br)c1 [Orn-CC30•HCl]	720 mg/mL
CC(C)[C@H](N)C(=O)Nc1ccccc1NC(=O)CCCCCC(=O)Nc1cccc(Br)c1.Cl [Val-CC30•HCl]	170 mg/mL
CC(C)C[C@H](N)C(=O)Nc1ccccc1NC(=O)CCCCCC(=O)Nc1cccc(Br)c1.Cl [Leu-CC30•HCl]	50 mg/mL
Cl.NCC(=O)Nc1ccccc1NC(=O)CCCCCC(=O)Nc1cccc(Br)c1 [Gly-CC30•HCl]	10 mg/mL
Nc1ccccc1NC(=O)c1ccc(CNC(=O)OCc2cccnc2)cc1 [MS-275, Entinostat, reference compound]	0.016 mg/mL (≈ 42.5 µM)
CC(O)C(N)C(=O)Nc1ccccc1NC(=O)c1ccc(CNC(=O)OCc2cccnc2)cc1.Cl (stereo not shown) [Thr-MS-275•HCl]	>100 mg/mL
Cl.NCC(=O)Nc1ccccc1NC(=O)CCCCCC(=O)Nc1ccccc1 [Gly-PAOA•HCl]	11 mg/mL
N[C@@H](CCC(=O)[O-])C(=O)Nc1ccccc1NC(=O)CCCCCC(=O)Nc1cccc(Br)c1.[Na+] [CC30-Glu•Na]	>100 mg/mL
C[C@@H](O)[C@H](N)C(=O)Nc1ccccc1NC(=O)c1ccc(CNc2nccc(-c3cccnc3)n2)cc1.Cl [Thr-MGCD0103•HCl]	>100 mg/mL
Nc1ccccc1NC(=O)CCCCCC(=O)Nc1ccccc1 [PAOA, reference compound]	.033 mg/mL (≈ 101 µM)
Cl.NC(CO)C(=O)Nc1ccccc1NC(=O)c1ccc(CNC(=O)OCc2cccnc2)cc1 (stereo not shown) [Ser-MS-275•HCl]	>100 mg/mL
Cl.N[C@@H](CO)C(=O)Nc1ccccc1NC(=O)CCCCCC(=O)Nc1cccc(Br)c1 [Ser-CC30•HCl]	10 mg/mL
Cl.Cl.NCCCC[C@H](N)C(=O)Nc1ccccc1NC(=O)CCCCCC(=O)Nc1ccccc1 [Lys-PAOA•2HCl]	>100 mg/mL
CC(C)[C@H](N)C(=O)Nc1ccccc1NC(=O)c1ccc(CNC(=O)OCc2cccnc2)cc1.Cl [Val-MS-275•HCl]	>100 mg/mL
Cl.NCC(=O)Nc1ccccc1NC(=O)c1ccc(CNC(=O)OCc2cccnc2)cc1 [Gly-MS-275•HCl]	68 mg/mL
Cl.NC(=O)C[C@H](N)C(=O)Nc1ccccc1NC(=O)CCCCCC(=O)Nc1cccc(Br)c1 [Asn-CC30•HCl]	30 mg/mL
CC(C)[C@H](N)C(=O)Nc1ccccc1NC(=O)CCCCCC(=O)Nc1ccccc1.Cl [Val-PAOA•HCl]	>100 mg/mL
Cl.Cl.N[C@@H](Cc1c[nH]cn1)C(=O)Nc1ccccc1NC(=O)CCCCCC(=O)Nc1cccc(Br)c1 [His-CC30•2HCl]	130 mg/mL
CC(C)C(N)C(=O)Nc1ccccc1NC(=O)c1ccc(CNc2nccc(-c3cccnc3)n2)cc1.Cl (stereo not shown) [Val-MGCD0103•HCl]	>100 mg/mL
O=C([O-])CCC(=O)Nc1ccccc1NC(=O)CCCCCC(=O)Nc1cccc(Br)c1.[Na+] [CC30-Suc-ONa]	2 mg/mL
Cl.Cl.NCCCCC(N)C(=O)Nc1ccccc1NC(=O)c1ccc(CNc2nccc(-c3cccnc3)n2)cc1 (stereo not shown) [Lys-MGCD0103•2HCl]	>100 mg/mL
Cl.N[C@@H](Cc1ccccc1)C(=O)Nc1ccccc1NC(=O)CCCCCC(=O)Nc1cccc(Br)c1 [Phe-CC30•HCl]	10 mg/mL

— patent US20150284360A1, “AMIDE DERIVATIVES OF ANILINE-RELATED COMPOUNDS AND COMPOSITIONS THEREOF” (C&C BIOPHARMA, LLC, priority 2014, published 2015)
